Reference: ChEMBL document CHEMBL3792365, “Dioxol and dihydrodioxin analogs of 2- and 3-phenylacetonitriles as potent anti-cancer agents with nanomolar activity against a variety of human cancer cells” (2016)

Tests used:
Format in all cases: functional
[1] = Growth inhibition of human SF295 cells at 10 uM after 48 hrs by sulforhodamine B assay; settings: SF-295, 48 h, values are per cent of control
[2] = Growth inhibition of human OVCAR5 cells at 10 uM after 48 hrs by sulforhodamine B assay; settings: OVCAR-5, 48 h, values are per cent of control
[3] = Growth inhibition of human BT549 cells at 10 uM after 48 hrs by sulforhodamine B assay; settings: BT-549, 48 h, values are per cent of control
[4] = Growth inhibition of human SNB19 cells at 10 uM after 48 hrs by sulforhodamine B assay; settings: SNB-19, 48 h, values are per cent of control
[5] = Growth inhibition of human SF539 cells at 10 uM after 48 hrs by sulforhodamine B assay; settings: SF-539, 48 h, values are per cent of control
[6] = tested on: SK-MEL-2; experiment: Growth inhibition of human SK-MEL-2 cells at 10 uM after 48 hrs by sulforhodamine B assay; settings: SK-MEL-2, 48 h, values are per cent of control
[7] = Growth inhibition of human Caki1 cells at 10 uM after 48 hrs by sulforhodamine B assay; settings: CAKI-1, 48 h, values are per cent of control
[8] = Growth inhibition of human Hs 578T cells at 10 uM after 48 hrs by sulforhodamine B assay; settings: values are per cent of control
[9] = Growth inhibition of human SF268 cells at 10 uM after 48 hrs by sulforhodamine B assay; settings: SF-268, 48 h, values are per cent of control
[10] = tested on: A549; experiment: Growth inhibition of human A549/ATCC cells at 10 uM after 48 hrs by sulforhodamine B assay; settings: A549, 48 h, values are per cent of control
[11] = tested on: NCI-H23; experiment: Growth inhibition of human NCI-H23 cells at 10 uM after 48 hrs by sulforhodamine B assay; settings: NCI-H23, 48 h, values are per cent of control
[12] = tested on: HT-29; experiment: Growth inhibition of human HT-29 cells at 10 uM after 48 hrs by sulforhodamine B assay; settings: HT-29, 48 h, values are per cent of control
[13] = tested on: SK-MEL-28; experiment: Growth inhibition of human SK-MEL-28 cells at 10 uM after 48 hrs by sulforhodamine B assay; settings: SK-MEL-28, 48 h, values are per cent of control
[14] = Growth inhibition of human UACC62 cells at 10 uM after 48 hrs by sulforhodamine B assay; settings: UACC-62, 48 h, values are per cent of control
[15] = tested on: SN12C; experiment: Growth inhibition of human SN12C cells at 10 uM after 48 hrs by sulforhodamine B assay; settings: values are per cent of control
[16] = tested on: NCI-H460; experiment: Growth inhibition of human NCI-H460 cells at 10 uM after 48 hrs by sulforhodamine B assay; settings: NCI-H460, 48 h, values are per cent of control
[17] = tested on: MDA-MB-468; experiment: Growth inhibition of human MDA-MB-468 cells at 10 uM after 48 hrs by sulforhodamine B assay; settings: MDA-MB-468, 48 h, values are per cent of control
[18] = tested on: KM12; experiment: Growth inhibition of human KM12 cells at 10 uM after 48 hrs by sulforhodamine B assay; settings: KM12, 48 h, values are per cent of control
[19] = tested on: K562; experiment: Growth inhibition of human K562 cells at 10 uM after 48 hrs by sulforhodamine B assay; settings: K562, 48 h, values are per cent of control
[20] = tested on: MDA-MB-435; experiment: Growth inhibition of human MDA-MB-435 cells at 10 uM after 48 hrs by sulforhodamine B assay; settings: MDA-MB-435, 48 h, values are per cent of control
[21] = Growth inhibition of human OVCAR4 cells at 10 uM after 48 hrs by sulforhodamine B assay; settings: OVCAR-4, 48 h, values are per cent of control
[22] = tested on: T47D; experiment: Growth inhibition of human T47D cells at 10 uM after 48 hrs by sulforhodamine B assay; settings: values are per cent of control
[23] = Growth inhibition of human IGROV1 cells at 10 uM after 48 hrs by sulforhodamine B assay; settings: IGROV-1, 48 h, values are per cent of control
[24] = Growth inhibition of human HCC2998 cells at 10 uM after 48 hrs by sulforhodamine B assay; settings: HCC 2998, 48 h, values are per cent of control
[25] = tested on: M14; experiment: Growth inhibition of human M14 cells at 10 uM after 48 hrs by sulforhodamine B assay; settings: M14, 48 h, values are per cent of control
[26] = Growth inhibition of human UO31 cells at 10 uM after 48 hrs by sulforhodamine B assay; settings: UO-31, 48 h, values are per cent of control
[27] = Growth inhibition of human SW620 cells at 10 uM after 48 hrs by sulforhodamine B assay; settings: SW-620, 48 h, values are per cent of control
[28] = Growth inhibition of human TK10 cells at 10 uM after 48 hrs by sulforhodamine B assay; settings: TK-10, 48 h, values are per cent of control
[29] = tested on: NCI-H226; experiment: Growth inhibition of human NCI-H226 cells at 10 uM after 48 hrs by sulforhodamine B assay; settings: NCI-H226, 48 h, values are per cent of control
[30] = tested on: MDA-MB-231; experiment: Growth inhibition of human MDA-MB-231 cells at 10 uM after 48 hrs by sulforhodamine B assay; settings: MDA-MB-231, 48 h, values are per cent of control
[31] = Growth inhibition of human HCT116 cells at 10 uM after 48 hrs by sulforhodamine B assay; settings: HCT-116, 48 h, values are per cent of control
[32] = Growth inhibition of human LOXIMVI cells at 10 uM after 48 hrs by sulforhodamine B assay; settings: LOX IMVI, values are per cent of control
[33] = tested on: U-251; experiment: Growth inhibition of human U251 cells at 10 uM after 48 hrs by sulforhodamine B assay; settings: U-251, 48 h, values are per cent of control
[34] = Growth inhibition of human DU145 cells at 10 uM after 48 hrs by sulforhodamine B assay; settings: DU-145, 48 h, values are per cent of control
[35] = Growth inhibition of human SNB75 cells at 10 uM after 48 hrs by sulforhodamine B assay; settings: SNB-75, 48 h, values are per cent of control
[36] = tested on: NCI-H522; experiment: Growth inhibition of human NCI-H522 cells at 10 uM after 48 hrs by sulforhodamine B assay; settings: NCI-H522, 48 h, values are per cent of control
[37] = Growth inhibition of human COLO205 cells at 10 uM after 48 hrs by sulforhodamine B assay; settings: COLO 205, 48 h, values are per cent of control
[38] = tested on: NCI-H322M; experiment: Growth inhibition of human NCI-H322M cells at 10 uM after 48 hrs by sulforhodamine B assay; settings: values are per cent of control
[39] = Growth inhibition of human HOP62 cells at 10 uM after 48 hrs by sulforhodamine B assay; settings: HOP-62, 48 h, values are per cent of control
[40] = tested on: A498; experiment: Growth inhibition of human A498 cells at 10 uM after 48 hrs by sulforhodamine B assay; settings: A498, 48 h, values are per cent of control

| SMILES | growth, % of control at 10 µM [1] [%] | growth, % of control at 10 µM [2] [%] | growth, % of control at 10 µM [3] [%] | growth, % of control at 10 µM [4] [%] | growth, % of control at 10 µM [5] [%] | growth, % of control at 10 µM [6] [%] | growth, % of control at 10 µM [7] [%] | growth, % of control at 10 µM [8] [%] | growth, % of control at 10 µM [9] [%] | growth, % of control at 10 µM [10] [%] | growth, % of control at 10 µM [11] [%] | growth, % of control at 10 µM [12] [%] | growth, % of control at 10 µM [13] [%] | growth, % of control at 10 µM [14] [%] | growth, % of control at 10 µM [15] [%] | growth, % of control at 10 µM [16] [%] | growth, % of control at 10 µM [17] [%] | growth, % of control at 10 µM [18] [%] | growth, % of control at 10 µM [19] [%] | growth, % of control at 10 µM [20] [%] | also measured |
| --- | --- | --- | --- | --- | --- | --- | --- | --- | --- | --- | --- | --- | --- | --- | --- | --- | --- | --- | --- | --- | --- |
| COc1ccc(/C=C(\C#N)c2ccc3c(c2)OCO3)cc1 | 11.2 | 49.6 | 30.3 | 46 | -13.8 | -17.7 | 24.8 | 27.2 | 38.5 | 32.3 | 43.2 | 6 | 40.7 | 37.5 | 37.2 | 15.5 | 1.2 | 30 | 15.8 | -29.1 | growth, % of control at 10 µM [21]: 67.3%; growth, % of control at 10 µM [22]: 35.8%; growth, % of control at 10 µM [23]: 46.3%; growth, % of control at 10 µM [24]: 49.4%; growth, % of control at 10 µM [25]: 10.5%; growth, % of control at 10 µM [26]: 28%; growth, % of control at 10 µM [27]: 19.6%; growth, % of control at 10 µM [28]: 32.2%; growth, % of control at 10 µM [29]: 71.8%; growth, % of control at 10 µM [30]: 49.6%; growth, % of control at 10 µM [31]: 17.4%; growth, % of control at 10 µM [32]: 33.3%; growth, % of control at 10 µM [33]: 16.5%; growth, % of control at 10 µM [34]: 28.3%; growth, % of control at 10 µM [35]: 2.2%; growth, % of control at 10 µM [36]: -2.4%; growth, % of control at 10 µM [37]: 11.9%; growth, % of control at 10 µM [38]: 35.7%; growth, % of control at 10 µM [39]: 43.8%; growth, % of control at 10 µM [40]: -6.2% |
| N#C/C(=C\c1cccc2ccccc12)c1ccc2c(c1)OCO2 | 68.2 | 98.2 | 51.8 | 82.1 | 67.9 | 59.8 | 61.2 | 65.5 | 71 | 55.9 | 77.7 | 23.5 | 64.6 | 44.7 | 75.9 | 77.8 | 25.9 | 39.2 | 21.7 | -28.5 | growth, % of control at 10 µM [21]: 68.9%; growth, % of control at 10 µM [22]: 67.9%; growth, % of control at 10 µM [23]: 68.8%; growth, % of control at 10 µM [24]: 68.8%; growth, % of control at 10 µM [25]: 37.9%; growth, % of control at 10 µM [26]: 80.3%; growth, % of control at 10 µM [27]: 35.2%; growth, % of control at 10 µM [28]: 78.2%; growth, % of control at 10 µM [29]: 83%; growth, % of control at 10 µM [30]: 48.3%; growth, % of control at 10 µM [31]: 32.7%; growth, % of control at 10 µM [32]: 65.2%; growth, % of control at 10 µM [33]: 47.3%; growth, % of control at 10 µM [34]: 77.7%; growth, % of control at 10 µM [35]: 61.6%; growth, % of control at 10 µM [36]: 47.6%; growth, % of control at 10 µM [37]: 56%; growth, % of control at 10 µM [38]: 90.5%; growth, % of control at 10 µM [39]: 75.9%; growth, % of control at 10 µM [40]: 35.7% |
